Source: PubChem BioAssay AID1963854 (Molecular Pharmacology Branch, DTP, NCI, 2024)

System: 186277-243-T-J2-PDC complex spheroid viability
Assay: Anticancer human tumor 186277-243-T-J2-PDC patient-derived colon adenocarcinoma cell line growth inhibition [POLQ]
Details: for IC50: curve of first compound; for viability, T/C: stronger effect = lower value; active = viability on the fitted dose curve at most 10% of control; inactive = the rest
Procedure, shortened: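 Three-cell-type spheroids modelling solid tumor plus stroma served as the readout system; POL inhibitors were tested individually and in combination, concentration ranges set by clinical Cmax where known.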

[1] = second compound 0.0316 µM, first compound 0.0316 µM
[2] = second compound 0.0316 µM, first compound 0.1 µM
[3] = second compound 0.0316 µM, first compound 0.316 µM
[4] = second compound 0.0316 µM, first compound 1 µM
[5] = second compound 0.0316 µM, first compound 3.16 µM
[6] = second compound 0.0316 µM, first compound 10 µM
[7] = second compound 0.1 µM, first compound 0.0316 µM
[8] = second compound 0.1 µM, first compound 0.1 µM
[9] = second compound 0.1 µM, first compound 0.316 µM
[10] = second compound 0.1 µM, first compound 1 µM
[11] = second compound 0.1 µM, first compound 3.16 µM
[12] = second compound 0.1 µM, first compound 10 µM
[13] = second compound 0.316 µM, first compound 0.0316 µM
[14] = second compound 0.316 µM, first compound 0.1 µM
[15] = second compound 0.316 µM, first compound 0.316 µM
[16] = second compound 0.316 µM, first compound 1 µM
[17] = second compound 0.316 µM, first compound 3.16 µM
[18] = second compound 0.316 µM, first compound 10 µM
[19] = second compound 1 µM, first compound 0.0316 µM
[20] = second compound 1 µM, first compound 0.1 µM
[21] = second compound 1 µM, first compound 0.316 µM
[22] = second compound 1 µM, first compound 1 µM
[23] = second compound 1 µM, first compound 3.16 µM
[24] = second compound 1 µM, first compound 10 µM
[25] = second compound 3.16 µM, first compound 0.0316 µM
[26] = second compound 3.16 µM, first compound 0.1 µM
[27] = second compound 3.16 µM, first compound 0.316 µM
[28] = second compound 3.16 µM, first compound 1 µM
[29] = second compound 3.16 µM, first compound 3.16 µM
[30] = second compound 3.16 µM, first compound 10 µM
[31] = second compound 10 µM, first compound 0.0316 µM
[32] = second compound 10 µM, first compound 0.1 µM
[33] = second compound 10 µM, first compound 0.316 µM
[34] = second compound 10 µM, first compound 1 µM
[35] = second compound 10 µM, first compound 3.16 µM
[36] = second compound 10 µM, first compound 10 µM
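Also: spheroids exposed to compounds for seven days.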
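For viability, T/C in this document: 100% = DMSO vehicle control viability.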

CC1COCCN1c1cc(C2(S(C)(=N)=O)CC2)nc(-c2ccnc3[nH]ccc23)n1 (stereo not given) + Cc1cccc(N(C)C(=O)C2C(O)CCN2c2nc(C)cc(C(F)(F)F)c2C#N)c1
active: viability, T/C [5] 8.14% | viability, T/C [6] 6.1% | viability, T/C [11] 8.3% | viability, T/C [12] 5.32% | viability, T/C [17] 7.67% | viability, T/C [18] 6.8% | viability, T/C [23] 7.51% | viability, T/C [24] 5.6% | viability, T/C [29] 8.67% | viability, T/C [30] 6.42% | viability, T/C [35] 7.11% | viability, T/C [36] 5.36%
784 nM: IC50 (second compound 10 µM)
861 nM: IC50 (second compound 0.0316 µM)
799 nM: IC50 (second compound 3.16 µM)
inactive: viability, T/C [1] 102% | viability, T/C [2] 102% | viability, T/C [3] 99% | viability, T/C [4] 42.6% | viability, T/C [7] 99.1% | viability, T/C [8] 103% | viability, T/C [9] 109% | viability, T/C [10] 37.1% | viability, T/C [13] 117% | viability, T/C [14] 105% | viability, T/C [15] 103% | viability, T/C [16] 39.6% | viability, T/C [19] 97% | viability, T/C [20] 104% | viability, T/C [21] 107% | viability, T/C [22] 40.7% | viability, T/C [25] 108% | viability, T/C [26] 108% | viability, T/C [27] 106% | viability, T/C [28] 35.9% | viability, T/C [31] 102% | viability, T/C [32] 111% | viability, T/C [33] 108% | viability, T/C [34] 34.7%
800 nM: IC50 (second compound 0.1 µM)
827 nM: IC50 (second compound 0.316 µM)
842 nM: IC50 (second compound 1 µM)

Nc1ccn(C2OC(CO)C(O)C2(F)F)c(=O)n1 (stereo not given) + Cc1cccc(N(C)C(=O)C2C(O)CCN2c2nc(C)cc(C(F)(F)F)c2C#N)c1
< 31.6 nM: IC50 (second compound 0.0316 µM) | IC50 (second compound 0.1 µM) | IC50 (second compound 0.316 µM) | IC50 (second compound 1 µM) | IC50 (second compound 3.16 µM) | IC50 (second compound 10 µM)
active: viability, T/C [1] 7.07% | viability, T/C [2] 6.17% | viability, T/C [3] 6.28% | viability, T/C [4] 7.91% | viability, T/C [5] 7.05% | viability, T/C [6] 6.44% | viability, T/C [7] 7.12% | viability, T/C [8] 6.99% | viability, T/C [9] 7.56% | viability, T/C [10] 8.01% | viability, T/C [11] 7.17% | viability, T/C [12] 6.37% | viability, T/C [13] 7.95% | viability, T/C [14] 7.37% | viability, T/C [15] 7% | viability, T/C [16] 7.74% | viability, T/C [17] 7.97% | viability, T/C [18] 5.75% | viability, T/C [19] 8.61% | viability, T/C [20] 6.36% | viability, T/C [21] 7.13% | viability, T/C [22] 7.45% | viability, T/C [23] 8.07% | viability, T/C [24] 6.24% | viability, T/C [25] 6.68% | viability, T/C [26] 6.49% | viability, T/C [27] 6.57% | viability, T/C [28] 7.84% | viability, T/C [29] 7.96% | viability, T/C [30] 6.36% | viability, T/C [31] 6.88% | viability, T/C [32] 5.82% | viability, T/C [33] 5.86% | viability, T/C [34] 6.97% | viability, T/C [35] 6.86% | viability, T/C [36] 5.93%

O=C(c1cc(Cc2n[nH]c(=O)c3ccccc23)ccc1F)N1CCN(C(=O)C2CC2)CC1 + COC1C(OC(N)=O)C(O)C(Oc2ccc3c(O)c(NC(=O)c4ccc(O)c(CC=C(C)C)c4)c(=O)oc3c2C)OC1(C)C
inactive: viability, T/C [1] 117% | viability, T/C [2] 105% | viability, T/C [3] 106% | viability, T/C [4] 92.3% | viability, T/C [5] 123% | viability, T/C [6] 66.7% | viability, T/C [7] 98.7% | viability, T/C [8] 102% | viability, T/C [9] 95% | viability, T/C [10] 97.3% | viability, T/C [11] 119% | viability, T/C [12] 63.2% | viability, T/C [13] 98.5% | viability, T/C [14] 111% | viability, T/C [15] 109% | viability, T/C [16] 94% | viability, T/C [17] 109% | viability, T/C [18] 66.1% | viability, T/C [19] 90.7% | viability, T/C [20] 101% | viability, T/C [21] 109% | viability, T/C [22] 102% | viability, T/C [23] 107% | viability, T/C [24] 65.9% | viability, T/C [25] 101% | viability, T/C [26] 105% | viability, T/C [27] 114% | viability, T/C [28] 90.1% | viability, T/C [29] 103% | viability, T/C [30] 63.9% | viability, T/C [31] 101% | viability, T/C [32] 91.6% | viability, T/C [33] 101% | viability, T/C [34] 115% | viability, T/C [35] 126% | viability, T/C [36] 66.2%
> 10000 nM: IC50 (second compound 0.0316 µM) | IC50 (second compound 0.1 µM) | IC50 (second compound 0.316 µM) | IC50 (second compound 1 µM) | IC50 (second compound 3.16 µM) | IC50 (second compound 10 µM)

CC1COCCN1c1cc(-c2ccnn2C)c2ccnc(-c3ccn[nH]3)c2n1 (stereo not given) + COC1C(OC(N)=O)C(O)C(Oc2ccc3c(O)c(NC(=O)c4ccc(O)c(CC=C(C)C)c4)c(=O)oc3c2C)OC1(C)C
active: viability, T/C [3] 4.76% | viability, T/C [4] 4.28% | viability, T/C [5] 3.3% | viability, T/C [6] 3.81% | viability, T/C [9] 4.88% | viability, T/C [10] 3.51% | viability, T/C [11] 2.82% | viability, T/C [12] 3.8% | viability, T/C [15] 4.58% | viability, T/C [16] 3.36% | viability, T/C [17] 2.79% | viability, T/C [18] 3.64% | viability, T/C [21] 5.31% | viability, T/C [22] 3.57% | viability, T/C [23] 3.29% | viability, T/C [24] 4.22% | viability, T/C [27] 4.98% | viability, T/C [28] 3.47% | viability, T/C [29] 4.1% | viability, T/C [30] 3.47% | viability, T/C [33] 5.41% | viability, T/C [34] 3.59% | viability, T/C [35] 4.37% | viability, T/C [36] 3.76%
45.6 nM: IC50 (second compound 0.316 µM)
45.8 nM: IC50 (second compound 0.1 µM)
42.8 nM: IC50 (second compound 3.16 µM)
inactive: viability, T/C [1] 63.9% | viability, T/C [2] 10.3% | viability, T/C [7] 68.6% | viability, T/C [8] 10.9% | viability, T/C [13] 67.6% | viability, T/C [14] 12.2% | viability, T/C [19] 71% | viability, T/C [20] 11.4% | viability, T/C [25] 63.9% | viability, T/C [26] 11.1% | viability, T/C [31] 77.8% | viability, T/C [32] 11.6%
42.6 nM: IC50 (second compound 0.0316 µM)
47.4 nM: IC50 (second compound 1 µM)
51.2 nM: IC50 (second compound 10 µM)

CC1COCCN1c1cc(C2(O)CC3CCC(C2)O3)c2cnn(-c3ccn[nH]3)c2n1 (stereo not given) + Nc1ccc(C#CCN(C(=O)Cc2ncc(C(F)(F)F)cc2C(F)(F)F)c2ccc(F)cc2)nn1
71.3 nM: IC50 (second compound 0.316 µM)
66.4 nM: IC50 (second compound 1 µM)
64.4 nM: IC50 (second compound 3.16 µM)
67.1 nM: IC50 (second compound 0.0316 µM)
55.2 nM: IC50 (second compound 10 µM)
69 nM: IC50 (second compound 0.1 µM)
inactive: viability, T/C [1] 107% | viability, T/C [2] 19.5% | viability, T/C [7] 113% | viability, T/C [8] 20.2% | viability, T/C [13] 116% | viability, T/C [14] 22.6% | viability, T/C [19] 109% | viability, T/C [20] 17.5% | viability, T/C [25] 102% | viability, T/C [26] 17.9% | viability, T/C [31] 85.1% | viability, T/C [32] 12.7%
active: viability, T/C [3] 9.32% | viability, T/C [4] 6.59% | viability, T/C [5] 9.6% | viability, T/C [6] 7.56% | viability, T/C [9] 8.44% | viability, T/C [10] 6.39% | viability, T/C [11] 8.6% | viability, T/C [12] 8.62% | viability, T/C [15] 8.74% | viability, T/C [16] 6.2% | viability, T/C [17] 8.36% | viability, T/C [18] 8.22% | viability, T/C [21] 8.98% | viability, T/C [22] 6.1% | viability, T/C [23] 8.12% | viability, T/C [24] 7.01% | viability, T/C [27] 8.53% | viability, T/C [28] 7.23% | viability, T/C [29] 8.02% | viability, T/C [30] 9.12% | viability, T/C [33] 8.17% | viability, T/C [34] 5.8% | viability, T/C [35] 8.58% | viability, T/C [36] 6.5%
